The values that follow come from patent US9493448B2, “Cycloalkane derivatives” (Daiichi Sankyo Company, Limited, priority 2012, dated 2016).

As usually defined, the IC50 is the concentration at which inhibition is half-maximal.

One assay concerns the target hNav 1.7 (Homo sapiens (Human), UniProt Q15858). Briefly: Electrophysiological evaluation, automated patch clamp IonWorks Quattro (Population Patch Clamp mode). Type of assay: cell-based. The following applies: HEK293A cells stably expressing hNav 1.7/β1/β2; response to second depolarization pulse, pre-pulse potential set to V1/2; read-out: hNav1.7 IC50. A general note: The patch-clamp technique gives a direct electrical read-out from membranes.

For assay [1], the system named is mice and rats affected by thermal hyperalgesia. Briefly: Thermal hyperalgesia assay.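 Further: measurement times set by the study director and not disclosed.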 Format: in vivo. The following applies: oral administration, constant dose, against the vehicle treatment group; latency to escape behaviors after thermal stimulation of hind paw.
Assay [2] relates to painful diabetic neuropathy. The following applies: cited from earlier work.

Sequence of hNav 1.7 (Q15858 whole entry): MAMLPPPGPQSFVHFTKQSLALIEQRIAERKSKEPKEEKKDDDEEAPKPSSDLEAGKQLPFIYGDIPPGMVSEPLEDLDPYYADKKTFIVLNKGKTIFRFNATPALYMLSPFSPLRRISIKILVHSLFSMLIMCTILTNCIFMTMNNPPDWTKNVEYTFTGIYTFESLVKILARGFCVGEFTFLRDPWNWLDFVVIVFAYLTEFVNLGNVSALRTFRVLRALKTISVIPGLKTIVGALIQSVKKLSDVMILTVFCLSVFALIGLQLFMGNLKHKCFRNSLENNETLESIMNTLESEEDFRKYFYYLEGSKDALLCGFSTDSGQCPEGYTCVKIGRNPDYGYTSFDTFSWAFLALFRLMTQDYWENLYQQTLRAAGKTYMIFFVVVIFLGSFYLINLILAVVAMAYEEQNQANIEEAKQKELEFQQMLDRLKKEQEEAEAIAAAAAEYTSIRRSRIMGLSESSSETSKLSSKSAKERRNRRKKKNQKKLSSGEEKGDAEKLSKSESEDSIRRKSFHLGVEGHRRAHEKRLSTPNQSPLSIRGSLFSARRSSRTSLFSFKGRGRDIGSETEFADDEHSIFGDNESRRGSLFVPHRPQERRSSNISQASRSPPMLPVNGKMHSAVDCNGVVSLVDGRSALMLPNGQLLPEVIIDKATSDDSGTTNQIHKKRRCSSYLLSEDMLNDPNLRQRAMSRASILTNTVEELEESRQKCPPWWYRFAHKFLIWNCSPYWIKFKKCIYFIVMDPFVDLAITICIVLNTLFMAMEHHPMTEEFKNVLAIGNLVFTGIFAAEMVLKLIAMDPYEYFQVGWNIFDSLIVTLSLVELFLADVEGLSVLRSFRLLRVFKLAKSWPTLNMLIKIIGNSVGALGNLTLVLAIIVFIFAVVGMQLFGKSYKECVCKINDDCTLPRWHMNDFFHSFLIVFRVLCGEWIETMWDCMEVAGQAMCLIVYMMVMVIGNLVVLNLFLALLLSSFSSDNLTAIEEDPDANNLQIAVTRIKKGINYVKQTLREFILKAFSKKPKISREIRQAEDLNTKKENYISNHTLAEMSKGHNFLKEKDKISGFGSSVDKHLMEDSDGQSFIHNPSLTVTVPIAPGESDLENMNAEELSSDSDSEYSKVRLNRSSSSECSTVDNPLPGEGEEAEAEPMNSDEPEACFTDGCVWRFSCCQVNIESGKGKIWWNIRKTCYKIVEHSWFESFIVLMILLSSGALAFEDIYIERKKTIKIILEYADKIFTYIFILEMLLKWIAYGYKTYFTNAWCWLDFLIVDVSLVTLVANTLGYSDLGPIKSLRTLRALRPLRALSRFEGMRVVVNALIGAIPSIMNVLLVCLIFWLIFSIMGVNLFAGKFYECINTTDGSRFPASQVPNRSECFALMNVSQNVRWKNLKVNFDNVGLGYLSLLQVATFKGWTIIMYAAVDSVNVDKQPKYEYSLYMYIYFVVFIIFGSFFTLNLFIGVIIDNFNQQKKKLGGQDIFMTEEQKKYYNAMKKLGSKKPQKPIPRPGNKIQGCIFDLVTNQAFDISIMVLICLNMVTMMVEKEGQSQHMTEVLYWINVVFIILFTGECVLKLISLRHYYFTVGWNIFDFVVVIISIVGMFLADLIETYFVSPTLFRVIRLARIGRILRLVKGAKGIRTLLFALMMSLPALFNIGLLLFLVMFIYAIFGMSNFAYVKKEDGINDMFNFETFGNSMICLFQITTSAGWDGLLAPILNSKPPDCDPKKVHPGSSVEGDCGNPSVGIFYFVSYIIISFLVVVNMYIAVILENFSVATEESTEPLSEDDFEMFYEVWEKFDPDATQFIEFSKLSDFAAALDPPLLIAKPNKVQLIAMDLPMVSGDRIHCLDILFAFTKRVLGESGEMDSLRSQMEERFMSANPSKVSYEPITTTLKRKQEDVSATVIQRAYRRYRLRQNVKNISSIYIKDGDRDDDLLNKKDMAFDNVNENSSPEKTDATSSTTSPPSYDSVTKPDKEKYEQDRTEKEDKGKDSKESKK
Sequence of hNav 1.7 (Q07699 19-218 partner): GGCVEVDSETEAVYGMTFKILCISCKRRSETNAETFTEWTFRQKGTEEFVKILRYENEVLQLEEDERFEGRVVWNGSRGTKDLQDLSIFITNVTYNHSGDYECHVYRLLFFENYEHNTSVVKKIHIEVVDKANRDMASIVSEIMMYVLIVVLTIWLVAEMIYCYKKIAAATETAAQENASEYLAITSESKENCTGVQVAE
Sequence of hNav 1.7 (O60939 30-215 partner): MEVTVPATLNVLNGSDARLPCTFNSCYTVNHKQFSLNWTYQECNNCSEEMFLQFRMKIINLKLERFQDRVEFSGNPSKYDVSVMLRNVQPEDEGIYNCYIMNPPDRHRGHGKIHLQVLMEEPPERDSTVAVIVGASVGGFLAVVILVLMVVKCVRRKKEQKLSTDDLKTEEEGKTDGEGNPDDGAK

Take `Cn1nccc1[C@H]1CC(F)(F)C[C@@H]1Oc1ccc(S(=O)(=O)Nc2ccncn2)c(F)c1F` (relative stereo) [Example 132, 4-{[(1S*,2R*)-4,4-Difluoro-2-(1-methyl-1H-pyrazol-5-yl)cyclopentyl]oxy}-2,3-difluoro-N-(pyrimidin-4-yl)benzenesulfonamide]: the half-maximal inhibitory concentration (IC50) on hNav 1.7 was 200 nM. Moreover, in assay [1], the “Ratio of improving pain score (%)” value is “A (“A” when the rate was 61 to 100%)”.
For `Cc1cc(S(=O)(=O)Nc2ccncn2)c(F)cc1O[C@H]1CC(F)(F)C[C@@H]1c1ccnn1C` (relative stereo) [Example 133, 4-{[(1S*,2R*)-4,4-Difluoro-2-(1-methyl-1H-pyrazol-5-yl)cyclopentyl]oxy}-2-fluoro-5-methyl-N-(pyrimidin-4-yl)benzenesulfonamide], in that order: 57 nM and “A (“A” when the rate was 61 to 100%)”.
For `Cn1nccc1[C@H]1CCC(F)(F)C[C@@H]1Oc1cc(F)c(S(=O)(=O)Nc2nncs2)cc1Cl` (relative stereo) [Example 134, 5-Chloro-4-{[(1S*,2R*)-5,5-difluoro-2-(1-methyl-1H-pyrazol-5-yl)cyclohexyl]oxy}-2-fluoro-N-(1,3,4-thiadiazol-2-yl)benzenesulfonamide], in that order: 34 nM and “B (“B” when the rate was 31 to 60%)”.
Consider `Cn1nccc1[C@H]1CC(F)(F)C[C@@H]1Oc1cc(F)c(S(=O)(=O)Nc2ccncn2)c(F)c1` (relative stereo) [Example 135, 4-{[(1S*,2R*)-4,4-Difluoro-2-(1-methyl-1H-pyrazol-5-yl)cyclopentyl]oxy}-2,6-difluoro-N-(pyrimidin-4-yl)benzenesulfonamide], for which, on hNav 1.7, the IC50 was 51 nM. Also, the “Ratio of improving pain score (%)” value in assay [1] is “B (“B” when the rate was 31 to 60%)”.
For `Cn1nccc1[C@H]1CC(F)(F)C[C@@H]1Oc1ccc(S(=O)(=O)Nc2ccncn2)c(F)c1` (relative stereo) [Example 136, 4-{[(1S*,2R*)-4,4-Difluoro-2-(1-methyl-1H-pyrazol-5-yl)cyclopentyl]oxy}-2-fluoro-N-(pyrimidin-4-yl)benzenesulfonamide], the IC50 on hNav 1.7 was found to be 290 nM. The “Ratio of improving pain score (%)” value in assay [1] is listed as “B (“B” when the rate was 31 to 60%)”.
For `Cc1cc(S(=O)(=O)Nc2ccncn2)c(F)cc1O[C@H]1CCC[C@@H]1c1ccn[nH]1` (relative stereo) [Example 138, 2-Fluoro-5-methyl-4-{[(1S*,2R*)-2-(1H-pyrazol-5-yl)cyclopentyl]oxy}-N-(pyrimidin-4-yl)benzenesulfonamide], in that order: 24 nM and “B (“B” when the rate was 31 to 60%)”.
As for `O=S(=O)(Nc1ccncn1)c1c(F)cc(O[C@H]2CCC[C@@H]2c2ccn[nH]2)cc1F` (relative stereo) [Example 139, 2,6-Difluoro-4-{[(1S*,2R*)-2-(1H-pyrazol-5-yl)cyclopentyl]oxy}-N-(pyrimidin-4-yl)benzenesulfonamide], the IC50 at hNav 1.7 is 35 nM. In addition, the “Ratio of improving pain score (%)” value in assay [1] is “C (“C” when the rate was 0 to 30%)”.
For `O=S(=O)(Nc1ccncn1)c1cc(Cl)c(O[C@H]2CCC[C@@H]2c2ccn[nH]2)cc1F` (relative stereo) [Example 140, 5-Chloro-2-fluoro-4-{[(1S*,2R*)-2-(1H-pyrazol-5-yl)cyclopentyl]oxy}-N-(pyrimidin-4-yl)benzenesulfonamide], the half-inhibitory concentration (IC50) on hNav 1.7 amounted to 34 nM. For the same molecule, the “Ratio of improving pain score (%)” value in assay [1] is on record as “B (“B” when the rate was 31 to 60%)”.
For the molecule `Cn1nccc1[C@H]1CCC(F)(F)C[C@@H]1Oc1cc(F)c(S(=O)(=O)Nc2ccncn2)cc1Cl` (relative stereo) [Example 141, 5-Chloro-4-{[(1S*,2R*)-5,5-difluoro-2-(1-methyl-1H-pyrazol-5-yl)cyclohexyl]oxy}-2-fluoro-N-(pyrimidin-4-yl)benzenesulfonamide], on hNav 1.7, the half-inhibitory concentration (IC50) amounted to 58 nM. For the same molecule, in assay [1], the “Ratio of improving pain score (%)” value was “A (“A” when the rate was 61 to 100%)”.
For `Cn1nccc1[C@H]1CC(F)(F)C[C@@H]1Oc1cc(F)c(S(=O)(=O)Nc2ccncn2)cc1Cl` (relative stereo) [Example 146, 5-Chloro-4-{[(1S*,2R*)-4,4-difluoro-2-(1-methyl-1H-pyrazol-5-yl)cyclopentyl]oxy}-2-fluoro-N-(pyrimidin-4-yl)benzenesulfonamide], in that order: 24 nM and “C (“C” when the rate was 0 to 30%)”.
Consider `O=S(=O)(Nc1ccncn1)c1ccc(O[C@H]2CC(F)(F)CC[C@@H]2c2cn[nH]c2)cc1F` (relative stereo) [Example 147, 4-{[(1S*,2R*)-5,5-Difluoro-2-(1H-pyrazol-4-yl)cyclohexyl]oxy}-2-fluoro-N-(pyrimidin-4-yl)benzenesulfonamide], for which the IC50 at hNav 1.7 was found to be 600 nM. Further, the “Ratio of improving pain score (%)” value in assay [1] is “C (“C” when the rate was 0 to 30%)”.
For `O=S(=O)(Nc1ccncn1)c1cc(Cl)c(O[C@H]2CC(F)(F)CC[C@@H]2c2cn[nH]c2)cc1F` (relative stereo) [Example 152, 5-Chloro-4-{[(1S*,2R*)-5,5-difluoro-2-(1H-pyrazol-4-yl)cyclohexyl]oxy}-2-fluoro-N-(pyrimidin-4-yl)benzenesulfonamide], in that order: 17 nM and “B (“B” when the rate was 31 to 60%)”.
Turning to `CCn1nccc1[C@@H]1CCC[C@H]1Oc1ccc(S(=O)(=O)Nc2ccncn2)c(F)c1F` [Example 118, 4-{[(1R,2S)-2-(1-Ethyl-1H-pyrazol-5-yl)cyclopentyl]oxy}-2,3-difluoro-N-(pyrimidin-4-yl)benzenesulfonamide], the half-maximal inhibitory concentration (IC50) at hNav 1.7 stood at 21000 nM. In addition, in assay [1], the “Ratio of improving pain score (%)” value is reported as “A (“A” when the rate was 61 to 100%)”.
On to `CCn1nccc1[C@H]1CCC[C@@H]1Oc1ccc(S(=O)(=O)Nc2ccncn2)c(F)c1F` [Example 119, 4-{[(1S,2R)-2-(1-Ethyl-1H-pyrazol-5-yl)cyclopentyl]oxy}-2,3-difluoro-N-(pyrimidin-4-yl)benzenesulfonamide], for which the IC50 at hNav 1.7 came out at 100 nM. The “Ratio of improving pain score (%)” value in assay [1] is reported as “A (“A” when the rate was 61 to 100%)”.
For `Cn1nccc1[C@@H]1CCC[C@H]1Oc1ccc(S(=O)(=O)Nc2ccncn2)c(F)c1` [Example 128, 2-Fluoro-4-{[(1R,2S)-2-(1-methyl-1H-pyrazol-5-yl)cyclopentyl]oxy}-N-(pyrimidin-4-yl)benzenesulfonamide], in that order: 92000 nM and “B (“B” when the rate was 31 to 60%)”.
On to `Cc1cc(S(=O)(=O)Nc2ccncn2)c(F)cc1O[C@H]1CC(F)(F)CC[C@@H]1c1ccnn1C` [Example 137, 4-{[(1S,2R)-5,5-Difluoro-2-(1-methyl-1H-pyrazol-5-yl)cyclohexyl]oxy}-2-fluoro-5-methyl-N-(pyrimidin-4-yl)benzenesulfonamide], for which, at hNav 1.7, the IC50 stood at 30 nM. Moreover, the “Ratio of improving pain score (%)” value in assay [1] is given as “A (“A” when the rate was 61 to 100%)”.
For `Cc1cc(S(=O)(=O)Nc2ccncn2)c(F)cc1O[C@H]1CC(F)(F)CC[C@@H]1c1cn[nH]c1` [Example 143, 4-{[(1S,2R)-5,5-Difluoro-2-(1H-pyrazol-4-yl)cyclohexyl]oxy}-2-fluoro-5-methyl-N-(pyrimidin-4-yl)benzenesulfonamide], in that order: 21 nM and “B (“B” when the rate was 31 to 60%)”.
As for `Cc1cc(S(=O)(=O)Nc2ccncn2)c(F)cc1O[C@H]1CCC[C@@H]1c1ccn[nH]1` [Example 148, 2-Fluoro-5-methyl-4-{[(1S,2R)-2-(1H-pyrazol-5-yl)cyclopentyl]oxy}-N-(pyrimidin-4-yl)benzenesulfonamide], the 50% inhibitory concentration (IC50) at hNav 1.7 amounted to 18 nM. Also, the “Ratio of improving pain score (%)” value in assay [1] is given as “B (“B” when the rate was 31 to 60%)”.
Regarding `O=S(=O)(Nc1ccncn1)c1cc(Cl)c(O[C@H]2CCC[C@@H]2c2ccn[nH]2)cc1F` [Example 150, 5-Chloro-2-fluoro-4-{[(1S,2R)-2-(1H-pyrazol-5-yl)cyclopentyl]oxy}-N-(pyrimidin-4-yl)benzenesulfonamide], the half-inhibitory concentration (IC50) on hNav 1.7 was 21 nM. For the same molecule, the “Ratio of improving pain score (%)” value in assay [1] is “C (“C” when the rate was 0 to 30%)”.
For `O=S(=O)(Nc1ccncn1)c1cc(Cl)c(O[C@H]2CCCC[C@@H]2c2ccn[nH]2)cc1F` [Example 158, 5-Chloro-2-fluoro-4-{[(1S,2R)-2-(1H-pyrazol-5-yl)cyclohexyl]oxy}-N-(pyrimidin-4-yl)benzenesulfonamide], in that order: 28 nM and “C (“C” when the rate was 0 to 30%)”.
For `Cn1nccc1[C@H]1C[C@H](O)CC[C@@H]1Oc1cc(F)c(S(=O)(=O)Nc2ccncn2)cc1Cl` [Example 165, 5-Chloro-2-fluoro-4-{[(1S,2R,4R)-4-hydroxy-2-(1-methyl-1H-pyrazol-5-yl)cyclohexyl]oxy}-N-(pyrimidin-4-yl)benzenesulfonamide], in that order: 40 nM and “B (“B” when the rate was 31 to 60%)”.
For `O=S(=O)(Nc1ccncn1)c1c(F)cc(O[C@H]2CCCC[C@@H]2c2cn[nH]c2)cc1F` [Example 171, 2,6-Difluoro-4-{[(1S,2R)-2-(1H-pyrazol-4-yl)cyclohexyl]oxy}-N-(pyrimidin-4-yl)benzenesulfonamide], the IC50 at hNav 1.7 amounted to 43 nM. In addition, in assay [1], the “Ratio of improving pain score (%)” value is “B (“B” when the rate was 31 to 60%)”.
`CC(C)C[C@H](CN)CC(=O)O` [pregabalin]: in assay [2], the “effective therapeutic ratio based on self-evaluation of patients” value is “approximately 50%”.
